Experimental data: article PMC10962542, “Inhibition of Aurora‐A/N‐Myc Protein–Protein Interaction Using Peptidomimetics: Understanding the Role of Peptide Cyclization” (Chembiochem, 2023)
Marks after values point to notes of the source that are not given here. Where a SMILES comes first, the peptide text is derived from it.

Legend:
N‐Myc protein levels = conditions: cited from earlier work
Source text: (§1) Similarly, Weiss and co‐workers developed a series of conformation‐disrupting Aurora‐A inhibitors based on diaminopyrimidine and pyrazolopyrimidine scaffolds, such as CD532.[8]

Aurora‐A and N‐Myc = conditions: in comparison to established allosteric Aurora‐A inhibitors; cited from earlier work
Source text: as §1

[1] = test system: N‐Myc/Aurora‐A interaction; conditions: competition co‐precipitation; cited from earlier work
Source text: as §1

circular dichroism = experiment: circular dichroism; set-up: unit not given here; conditions: 25 mM Tris, 150 mM NaCl, 5 mM MgCl2; pH 7.5; 5 °C; 30-120 uM
[2] = biological target: T1, N‐Myc/Aurora‐A interaction (Aurora‐A122‐403‐C290A/C393A) (Homo sapiens, UniProt O14965, C290A/C393A); experiment: competition fluorescence anisotropy (FA) assay against fluorescein labelled N‐Myc61‐89; type: binding; conditions: SD; also: equilibrated 2 h at room temperature
T1 construct: Aurora‐A 122‐403‐C290A/C393A protein was produced as described previously; made in house
T1 sequence (O14965 122-403 C290A/C393A): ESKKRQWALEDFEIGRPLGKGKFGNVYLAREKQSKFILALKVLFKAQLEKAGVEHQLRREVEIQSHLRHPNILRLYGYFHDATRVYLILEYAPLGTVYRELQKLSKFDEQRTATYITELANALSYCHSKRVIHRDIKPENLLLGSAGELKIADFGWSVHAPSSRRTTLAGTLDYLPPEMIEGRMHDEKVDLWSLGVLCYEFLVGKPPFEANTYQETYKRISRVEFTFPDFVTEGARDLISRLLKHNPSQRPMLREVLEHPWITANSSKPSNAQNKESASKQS

[3] = circular dichroism (CD) spectroscopy; type: physicochemical; conditions: 150 mM NaCl, 5 mM MgCl2, pH 7.5, 5 °C, n=2, free‐thiol (red) samples with 5 mol equivalents TCEP; for MRE222 (mean residue ellipticity at 222 nm): 25 mM Tris, mean ± SD, SD; for % Helicity (estimated): from MRE222 by equation 7, 25 mM Tris
How it was run: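 Peptides at 30–120 μM in 25 mM Tris, 150 mM NaCl, 5 mM MgCl2, pH 7.5 (plus 5 mol eq. TCEP for free sulfhydryl peptides) were scanned in duplicate at 5 °C from 290 to 180 nm, 1 mm pathlength. Buffer-subtracted ellipticity gave mean residue ellipticity, and % helicity was estimated from MRE at 222 nm.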

IC50 [2] [µM] | MRE222 (mean residue ellipticity at 222 nm) [3] | % Helicity (estimated) [3] [%] | Compound | helicity (circular dichroism) | other results
 |  |  | O=C(Nc1ccc(Nc2nccc(Nc3cc(C4CCCC4)[nH]n3)n2)cc1)Nc1cccc(C(F)(F)F)c1 [CD532] |  | N‐Myc protein levels in xenographs (N‐Myc protein levels): reduced N‐Myc protein levels
 |  |  | CN(C)C(=O)c1cc2cnc(Nc3ccc(C(=O)NCCCCCCOc4cccc5c4C(=O)N(C4CCC(=O)NC4=O)C5=O)cc3)nc2n1C1CCCC1 (centres unmarked) [HLB‐0532259] |  | degradation of Aurora‐A and N‐Myc (Aurora‐A and N‐Myc): promote degradation of Aurora‐A and N‐Myc with superior potency
 |  |  | O=C(O)c1ccc(Nc2ncc3c(n2)-c2ccc(Cl)cc2C(c2c(F)cccc2F)=NC3)cc1 [MLN8054] |  | disruption of the N‐Myc/Aurora‐A interaction [1]: disrupted
123 ± 10 | −4383±64^[e] deg cm^−1 dmol^−1 res^−1 | 13±1 | CSCC[C@H](NC(=O)[C@H](CCC(=O)O)NC(=O)[C@@H](NC(=O)[C@@H](NC(=O)[C@H](Cc1c[nH]c2ccccc12)NC(=O)[C@H](CO)NC(=O)[C@@H]1CCCN1C(=O)[C@@H]1CCCN1C(=O)[C@H](CCC(=O)O)NC(C)=O)C(C)C)[C@@H](C)O)C(=O)N[C@@H](CC(C)C)C(=O)N[C@@H](CC(C)C)C(=O)N[C@@H](CCC(=O)O)C(=O)N[C@@H](CS)C(=O)N[C@@H](CCC(=O)O)C(=O)N[C@@H](CC(C)C)C(=O)N[C@@H](Cc1c[nH]c2ccccc12)C(=O)N[C@@H](CS)C(=O)N[C@@H](CO)C(=O)N1CCC[C@H]1C(=O)N[C@@H](C)C(=O)N[C@@H](CCC(=O)O)C(=O)N[C@@H](CCC(=O)O)C(N)=O [N‐Myc73‐94‐N85C/G89C (red)] (Ac-EPPSWVTEMLLECELWCSPAEE-NH2) | -4380 | 
215 ± 11 | −4342±142 deg cm^−1 dmol^−1 res^−1 | 14±1 | Ac-SWVTEMLLENELWG-NH2 [N‐Myc76‐89] | -4340 | 
